Here are results for 7 molecules from publication PMC5059921, “Chalepin: isolated from Ruta angustifolia L. Pers induces mitochondrial mediated apoptosis in lung carcinoma cells” (BMC Complementary and Alternative Medicine, 2016).

≈ marks a conversion by molar mass, not a printed value. Like-named read-outs stand apart in the source and are kept apart here. A value given as a limit tells only on which side of the number the result lay.

For one test, the system named is A549 cell line. As to the kind of experiment: SRB in vitro cytotoxicity screening. As to conditions: Homo sapiens, A549, isolated compounds. It counts as cell-based, human. The method, then: (§1) The human cell lines A549 (lung cancer) and Ca Ski (cervical cancer) were cultured as monolayer in RPMI 1640 growth media whereas HCT-116 (colon cancer) and MRC5 (human normal lung fibroblasts) was cultured in McCoy’s 5A and EMEM medium, respectively. All cells were purchased from the […] (ATCC, USA). All the media were supplemented with 10 % v/v foetal bovine serum (FBS), 100 μg/mL penicillin/streptomycin, and 50 μg/mL amphotericin B. The cells were cultured in a 5 % CO2 incubator at 37 °C.
(§2) The monolayer cell culture was detached using accutase and the cell count was adjusted to 2.5 x10^5 -3.0 x10^5 cells/mL using medium containing feotal bovine serum. The cells were then plated into 96 wells with a cell density of 5000-7000 cells/well and then incubated for 24 h to allow adherence of cells to the base of well of the plates. The media was then removed and 200 μl of fresh media containing different concentration of various extracts or isolated compounds were added. Cisplatin was used as the positive control. The plates were incubated for 24, 48 and 72 h at 37 °C and 5 % CO2. The cytotoxicity of the extracts and isolated compounds were screened using the […] (SRB) assay. This assay was first described by Houghton in 2007 [8]. The incubation was halted by gentle addition of 50 μl ice cold 4 % trichloroacetic acid (TCA) to each well and the plates were incubated at 4 °C for 1 h. Then, the supernatant was discarded and the plates were washed with distilled water for 5 times and then air dried. SRB dye, 50 μl, (0.4 % w/v) was added into each well and the treated cells and control were incubated at room temperature for 30 min. The unbound dye was removed by rapid washing four times with 1 % acetic acid. The plates were then air dried and 100 μl of tris base (10 mM unbuffered, pH 10.5) was added and the plates were shaken at 500 rpm for 5 min to solublize the bound SRB stain. The plates were then read with an ELISA reader (Synergy H1 Hybrid) at an absorbance of 492 nm.

Test [1] concerns cervical carcinoma (HeLa). The arrangement: method as in PMID 17109253. As to conditions: arborinine isolated from Ruta graveolens; cited from earlier work.
Test [2] relates to breast adenocarcinoma (MCF-7). Also noted: method as in PMID 17109253. As to conditions: arborinine isolated from Ruta graveolens; cited from earlier work.
In test [3] the test system is skin epidermoid carcinoma (A431). Also noted: method as in PMID 17109253. As to conditions: arborinine isolated from Ruta graveolens; cited from earlier work.
In test [4] the test system is MRC5 (human normal lung fibroblasts). As to the kind of experiment: SRB in vitro cytotoxicity screening (toxicity to normal cells). It counts as cell-based. The conditions noted are these: Homo sapiens, MRC5, isolated compounds, 72 h, read-out: IC50 in μg/ml (μM) (MRC5) 72 h (converted). The method, then:
as §1, §2

The subject of a further test is A-549 tumour cell line. As to conditions: cited from earlier work.
In test [5] the test system is hepatitis C virus, hepatoma cell line (Huh7.5). The arrangement: method as in PMID 25454460. As to conditions: cited from earlier work.
The next test has as its system Hepa: Human hepatoma. Also noted: method as in earlier work. The conditions noted are these: cited from earlier work.
Test [6] has as its system Hela: Human cervix epithelioid carcinoma. Also noted: method as in earlier work. As to conditions: cited from earlier work.
The next test concerns washed rabbit platelets. The arrangement: method as in earlier work. As to conditions: cited from earlier work; for % inhibition of platelet aggregation, inducer AA: AA 100 /c109/c77; for % inhibition of platelet aggregation, inducer Col: collagen 10 /c109g/mL; for % inhibition of platelet aggregation, inducer PAF: PAF 2ng/mL; for % inhibition of platelet aggregation, inducer Thr: thrombin 0.1 U/mL.

Test [7] deals with DLD (DLD-1): Human colon adenocarcinoma. The arrangement: method as in earlier work. As to conditions: cited from earlier work.
[8] abbreviates: 48 h, value in brackets, read-out: IC50 in μg/ml (μM) (A549) 48 h (converted).
The mark [9] stands for this setting: 48 h, read-out: IC50 in μg/ml (μM) (A549) 48 h (converted).
Setting [10] is: 72 h, value in brackets, read-out: IC50 in μg/ml (μM) (A549) 72 h (converted).
The mark [11] stands for this setting: 72 h, read-out: IC50 in μg/ml (μM) (A549) 72 h (converted).

With `COc1cc2c(c(O)c1OC)c(=O)c1ccccc1n2C` [Arborinine, arborinine], the IC50 was 97.2 µM in the test on A549 cell line (setting [8]); 27.7 ± 0.26 µg/mL in the test with A549 cell line (setting [9]); 46 µM in the test with A549 cell line (setting [10]); 13.1 ± 0.06 µg/mL in the test on A549 cell line (setting [11]); 1.84 µg/mL (≈ 6.45 µM) in test [1]; 11.74 µg/mL (≈ 41.1 µM) in [2]. The IC50 was 12.95 µg/mL (≈ 45.4 µM) in test [3], 73 µM in test [4] (value in brackets) and 20.8 ± 0.15 µg/mL in [4].

As to `C=CC(C)(C)c1cc2cc3c(cc2oc1=O)OC(C(C)(C)OC(C)=O)C3` (stereo not shown) [Rutamarin, rutamarin], the IC50 with A549 cell line (setting [8]) was 158 µM; with A549 cell line (setting [9]) it was 56.3 ± 1.53 µg/mL; in the test with A549 cell line (setting [10]), 192 µM; with A549 cell line (setting [11]) it was 68.5 ± 3.06 µg/mL; in test [4] (value in brackets), above 281 µM; in test [4] it was above 100 µg/mL. Besides, in the test with A-549 tumour cell line, the “IC50 against A549 cell line” value was 1.318 µg/mL (≈ 3.7 µM).

Regarding rutamarin [Compound 4], the “IC50 A-549” value in the test with A-549 tumour cell line is 1318 µg/mL.

For `CCCCCCCCCc1cc(=O)c2ccccc2[nH]1` [pseudane IX], the “replication of hepatitis C virus” value in [5] was “stop the replication”.

graveolinine [Compound 16]: the “ED50 Hepa” value in the test with Hepa: Human hepatoma is given as “- (“-“: ED50 /c6220 /c109g/mL)”. Further, in [6], the “ED50 Hela” value was “- (“-“: ED50 /c6220 /c109g/mL)”. Also, the “% inhibition of platelet aggregation, inducer AA” value (“% inhibition … inducer AA” for short) with washed rabbit platelets (Conc. 0.2 /c109g/mL) is 6.8%; in the test with washed rabbit platelets (Conc. 0.5 /c109g/mL), 14.9%; with washed rabbit platelets (Conc. 1 /c109g/mL), 26.9%; in the test on washed rabbit platelets (Conc. 2 /c109g/mL) it was 38.4%; in the test with washed rabbit platelets (Conc. 5 /c109g/mL), 71.2%; in the test on washed rabbit platelets (Conc. 10 /c109g/mL) it was 73.1%. For the same molecule, the “% inhibition … inducer AA” value in the test on washed rabbit platelets (Conc. 20 /c109g/mL) is reported as 77.4%; in the test on washed rabbit platelets (Conc. 50 /c109g/mL) it was 100.0%; with washed rabbit platelets (Conc. 100 /c109g/mL), 100.0%. Also, the “% inhibition of platelet aggregation, inducer Col” value (“% inhibition … inducer Col” below) was 5.8% in the test on washed rabbit platelets (Conc. 0.5 /c109g/mL); 19.2% in the test on washed rabbit platelets (Conc. 1 /c109g/mL); 25.4% with washed rabbit platelets (Conc. 2 /c109g/mL); 33.3% in the test on washed rabbit platelets (Conc. 5 /c109g/mL); 49.5% in the test with washed rabbit platelets (Conc. 10 /c109g/mL); 72.6% in the test on washed rabbit platelets (Conc. 20 /c109g/mL). Further, the “% inhibition … inducer Col” value with washed rabbit platelets (Conc. 50 /c109g/mL) is given as 81.2%; in the test with washed rabbit platelets (Conc. 100 /c109g/mL) it was 100.0%. In the test on washed rabbit platelets (Conc. 100 /c109g/mL), the “% inhibition of platelet aggregation, inducer PAF” value was 34.6%. Besides, the “% inhibition of platelet aggregation, inducer Thr” value in the test with washed rabbit platelets (Conc. 100 /c109g/mL) is 9.0%. Moreover, the “ED50 DLD” value in test [7] is “- (“-“: ED50 /c6220 /c109g/mL)”.

As to `CC(=O)O[C@H]1C(=O)[C@@]2(C)[C@H]([C@H](OC(=O)c3ccccc3)[C@]3(O)C[C@H](OC(=O)[C@H](O)[C@@H](NC(=O)c4ccccc4)c4ccccc4)C(C)=C1C3(C)C)[C@]1(OC(C)=O)CO[C@@H]1C[C@@H]2O` [Taxol, reference compound], the “IC50 A-549” value in the test with A-549 tumour cell line is 16.6 µg/mL (≈ 19.4 µM).

For the molecule `COc1cc2ccc(=O)oc2cc1O` [Compound 15, scopoletin], the “ED50 Hepa” value with Hepa: Human hepatoma is on record as “- (“-“: ED50 /c6220 /c109g/mL)”. The “ED50 Hela” value in test [6] is reported as “- (“-“: ED50 /c6220 /c109g/mL)”. Moreover, in the test on washed rabbit platelets (Conc. 100 /c109g/mL), the “% inhibition … inducer AA” value is 14.7%; the “% inhibition of platelet aggregation, inducer PAF” value is 1.6%; the “% inhibition … inducer Col” value is reported as 3.4%; the “% inhibition of platelet aggregation, inducer Thr” value is recorded as 1.5%. In addition, the “antiplatelet aggregation activity (in words)” value in the test with washed rabbit platelets (at 100 /c109g/mL) is on record as “no obvious activity”. Further, the “ED50 DLD” value in test [7] is “- (“-“: ED50 /c6220 /c109g/mL)”.
